Experimental findings from patent US3994925A, “Salt of the silymarin group with aminopolyhydroxy alcohols” (Dr. Madaus & Co., priority 1973, dated 1976) are described below.

The experiment concerns proseodymium nitrate liver damage. The following applies: serum, 72 hours after 14 mg/kg praseodymnitrate i.v.; SMG1 140.5 mg/kg i.v. three days, MG1 40.5 mg/kg.

Procedure: The liver-protectiveeffect of the SMG1 was tested on white rats, in that experimentally produced liver damage was antagonized by SMG1 treatment. The rats were injected with the SMG1- or MG1-dosages in 5 ml 0.9% NaCl solution, to which 4% of PVP (M.W. about 10,000) was added per kg of body weight. A dosage of 140.5 mg/kg SMG1 corresponds to 100 mg Silymarin and 40.5 mg 1-methylamino-glucose. When the test animals received 140.5 mg/kg SMG1, the control animals were treated with the equivalent dosage of 1-methylamino glucose, i.e. 40.5 mg/kg.
In another series of tests, antagonization of proseodymium nitrate liver damage by SMG1, measured by the reaction of the serum enzyme glutamate-oxalacetate-transaminase (GOT), glutamate-pyruvate-transaminase (GPT), sorbital-dehydrogenase (SDH) and alkaline phosphatases (AP), was employed as a measure of efficacy of the instant materials. […] The test animals, male Wistar rats weighing approximately 200 g, were treated for three days with 140.5 mg/kg SMG1 i.v. On the first testing day, all rats were damaged i.v. with 14 mg/kg praseodymnitrate one hour after the SMG1- or MG1- injection.

For the substance “1-methylamino glucose [1-methylamino-glucose]”, the “AP (alkaline phosphatase)” value was 168.0 mU/ml, the GOT is recorded as 360.6 mU/ml, the GPT is listed as 118.4 mU/ml and the SDH is reported as 32.0 mU/ml.
